Assay results from US8129371B2, “Thienopyrimidine and pyrazolopyrimidine compounds and their use as mTOR kinase and PI3 kinase inhibitors” (Wyeth LLC, priority 2007, dated 2012).
Where two headings read alike, the source gives them in different places.

Legend:
[1] = system: prostate line LNCap; test: In vitro cell culture growth assay (MTS), LNCap; assay type: cell-based; conditions: Homo sapiens, LNCaP, 72 h, LNCap cells, three days after drug treatment
Summary of the method: (§1)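 Growth is reported as percent of vehicle-treated control grown in the same plate, with viability determined by metabolic conversion of MTS dye and absorbance read at 490 nm. Compounds were applied one day after plating and left for three days.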

[2] = molecular target: T1, Human mTOR (FLAG-TOR) (Homo sapiens, UniProt P42345); test: Human mTOR kinase assay with purified enzyme, DELFIA format; assay type: biochemical
T1 construct: FLAG
Summary of the method: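 DELFIA readout: Eu-anti-P(T389)-S6K antibody (40 ng/mL, 1 h) on captured His6-S6K from the stopped reaction. Kinase step used purified FLAG-tagged human mTOR with test compound in HEPES (pH 7.4)/MnCl2/DTT buffer, 2 h at room temperature (linear 1–6 h), terminated by EDTA/EGTA.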

[3] = molecular target: T2, PI3K (Homo sapiens, UniProt P42336); test: Fluorescence polarization assay for PI3K; assay type: biochemical; conditions: read-out: PI3 Kinase α IC50
T2 construct: PI3 Kinase α IC50; other: PI3 Kinase α; other: PI3 Kinase α isoform, fluorescence polarization
Summary of the method: (§2)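 Fluorescence-polarization competition readout: after 30–60 min of PIP2/ATP turnover in 1% DMSO, a stop mix with GST-GRP (70 nM) and red probe (10 nM) was added.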

[4] = molecular target: T3, PI3K (Homo sapiens, UniProt P48736); test: Fluorescence polarization assay for PI3K; assay type: biochemical; conditions: read-out: PI3 Kinase γ IC50
T3 construct: PI3 Kinase γ IC50; other: PI3 Kinase γ; other: PI3 Kinase γ isoform, fluorescence polarization
Summary of the method: as §2

[5] = system: breast line MDA468; test: In vitro cell culture growth assay (MTS), MDA468; assay type: cell-based; conditions: Homo sapiens, 72 h, MDA468 cells, three days after drug treatment
Summary of the method: as §1

[6] = purified human mTOR enzyme, DELFIA format
[7] = PI3 Kinase α isoform, fluorescence polarization
[8] = PI3 Kinase γ isoform, fluorescence polarization

T3 sequence (P48736 whole entry, canonical isoform): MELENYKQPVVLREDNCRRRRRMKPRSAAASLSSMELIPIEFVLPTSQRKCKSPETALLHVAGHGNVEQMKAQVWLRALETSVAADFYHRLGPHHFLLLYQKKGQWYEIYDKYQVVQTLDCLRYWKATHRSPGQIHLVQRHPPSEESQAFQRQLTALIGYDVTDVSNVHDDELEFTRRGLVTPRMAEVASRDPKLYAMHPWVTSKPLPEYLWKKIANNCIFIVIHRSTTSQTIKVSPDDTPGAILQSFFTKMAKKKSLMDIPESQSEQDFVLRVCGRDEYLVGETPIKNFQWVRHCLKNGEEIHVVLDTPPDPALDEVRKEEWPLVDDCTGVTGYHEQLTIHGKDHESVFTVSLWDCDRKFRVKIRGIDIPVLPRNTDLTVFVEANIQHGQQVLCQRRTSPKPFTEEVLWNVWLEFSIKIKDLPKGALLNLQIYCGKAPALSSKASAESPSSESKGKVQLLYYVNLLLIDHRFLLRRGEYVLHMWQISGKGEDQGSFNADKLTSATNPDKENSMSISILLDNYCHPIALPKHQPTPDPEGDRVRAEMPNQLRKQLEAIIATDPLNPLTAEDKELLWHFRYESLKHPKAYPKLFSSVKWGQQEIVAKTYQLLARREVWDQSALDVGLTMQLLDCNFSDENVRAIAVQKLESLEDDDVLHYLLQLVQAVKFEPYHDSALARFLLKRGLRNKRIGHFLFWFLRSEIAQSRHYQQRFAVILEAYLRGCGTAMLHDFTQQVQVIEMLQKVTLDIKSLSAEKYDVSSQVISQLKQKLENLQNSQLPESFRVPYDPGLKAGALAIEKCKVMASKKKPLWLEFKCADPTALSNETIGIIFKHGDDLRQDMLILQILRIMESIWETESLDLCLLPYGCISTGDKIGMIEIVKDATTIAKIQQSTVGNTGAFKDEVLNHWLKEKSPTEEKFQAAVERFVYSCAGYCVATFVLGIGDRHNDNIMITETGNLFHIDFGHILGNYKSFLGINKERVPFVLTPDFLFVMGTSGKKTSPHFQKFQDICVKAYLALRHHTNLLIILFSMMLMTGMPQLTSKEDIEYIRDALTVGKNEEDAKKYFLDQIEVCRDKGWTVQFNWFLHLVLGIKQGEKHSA
T2 sequence (P42336 whole entry, canonical isoform): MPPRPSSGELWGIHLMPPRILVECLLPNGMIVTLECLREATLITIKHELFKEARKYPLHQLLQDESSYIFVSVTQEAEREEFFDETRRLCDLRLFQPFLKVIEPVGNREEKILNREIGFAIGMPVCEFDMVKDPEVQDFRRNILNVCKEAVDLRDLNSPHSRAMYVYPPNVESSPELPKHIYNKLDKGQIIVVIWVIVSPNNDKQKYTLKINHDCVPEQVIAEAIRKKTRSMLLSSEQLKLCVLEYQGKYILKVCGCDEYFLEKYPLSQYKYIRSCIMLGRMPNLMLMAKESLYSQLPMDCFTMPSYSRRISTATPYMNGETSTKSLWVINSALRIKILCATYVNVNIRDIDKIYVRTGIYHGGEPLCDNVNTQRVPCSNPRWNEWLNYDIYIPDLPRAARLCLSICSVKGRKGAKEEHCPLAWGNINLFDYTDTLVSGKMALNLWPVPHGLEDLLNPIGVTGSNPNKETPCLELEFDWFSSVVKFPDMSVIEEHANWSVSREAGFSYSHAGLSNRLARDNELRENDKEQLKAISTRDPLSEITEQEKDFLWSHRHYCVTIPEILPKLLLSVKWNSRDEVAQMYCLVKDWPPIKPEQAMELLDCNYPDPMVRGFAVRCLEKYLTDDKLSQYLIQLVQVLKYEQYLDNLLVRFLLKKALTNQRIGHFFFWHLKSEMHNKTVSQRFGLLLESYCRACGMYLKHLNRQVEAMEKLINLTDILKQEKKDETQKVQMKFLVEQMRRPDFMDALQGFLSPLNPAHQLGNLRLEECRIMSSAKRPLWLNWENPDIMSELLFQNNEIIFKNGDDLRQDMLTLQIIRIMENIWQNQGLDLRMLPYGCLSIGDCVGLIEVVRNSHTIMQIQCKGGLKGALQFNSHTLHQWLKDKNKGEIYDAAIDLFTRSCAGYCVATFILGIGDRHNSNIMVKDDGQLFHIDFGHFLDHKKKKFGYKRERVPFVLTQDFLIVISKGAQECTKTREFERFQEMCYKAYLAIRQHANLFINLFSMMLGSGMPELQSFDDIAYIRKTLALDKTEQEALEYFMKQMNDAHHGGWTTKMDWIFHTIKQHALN

Row | IC50 [1] [nM] | IC50 [2, 6] [nM] | IC50 [3, 7] [nM] | IC50 [4, 8] [nM] | IC50 [2] [nM] | IC50 ([3]; PI3 Kinase α) [nM] | IC50 ([4]; PI3 Kinase γ) [nM] | Structure (SMILES) | IC50 [5] [nM]
1 | 650 | – | – | – | 8 | > 10000 | > 10000 | COC(=O)Nc1ccc(-c2nc(N3CC4CCC(C3)O4)c3cnn(CC(F)(F)F)c3n2)cc1 [Example 2, methyl {4-[4-(8-oxa-3-azabicyclo[3.2.1]oct-3-yl)-1-(2,2,2-trifluoroethyl)-1H-pyrazolo[3,4-d]pyrimidin-6-yl]phenyl}carbamate] | 680
2 | 10 | – | – | – | 0.37 | 272 | 6820 | COC(=O)N1CCC(n2ncc3c(N4CC5CCC(C4)O5)nc(-c4ccc(NC(=O)Nc5ccccc5)cc4)nc32)CC1 [Example 11, methyl 4-[4-(8-oxa-3-azabicyclo[3.2.1]oct-3-yl)-6-{4-[(phenylcarbamoyl)amino]phenyl}-1H-pyrazolo[3,4-d]pyrimidin-1-yl]piperidine-1-carboxylate] | 120
3 | 700 | – | – | – | 230 | 4150 | > 10000 | CCn1ncc2c(N3CC4CCC(C3)O4)nc(-c3ccc(NC(=O)NCC4CCN(C)CC4)cc3)nc21 [Example 226, 1-{4-[1-ethyl-4-(8-oxa-3-azabicyclo[3.2.1]oct-3-yl)-1H-pyrazolo[3,4-d]pyrimidin-6-yl]phenyl}-3-[(1-methylpiperidin-4-yl)methyl]urea] | 1300
4 | 90 | – | – | – | 0.7 | 1360 | > 10000 | CCNC(=O)Nc1ccc(-c2nc(N3CC4CCC(C3)O4)c3cnn(CCF)c3n2)cc1 [Example 247, 1-ethyl-3-{4-[1-(2-fluoroethyl)-4-(8-oxa-3-azabicyclo[3.2.1]oct-3-yl)-1H-pyrazolo[3,4-d]pyrimidin-6-yl]phenyl}urea] | 400
5 | 45 | – | – | – | 1.5 | > 10000 | > 10000 | O=C(Nc1ccc(-c2nc(N3CC4CCC(C3)O4)c3cnn(C4CCC5(CC4)OCCO5)c3n2)cc1)OCCF [Example 130, 2-fluoroethyl {4-[1-(1,4-dioxaspiro[4.5]dec-8-yl)-4-(8-oxa-3-azabicyclo[3.2.1]oct-3-yl)-1H-pyrazolo[3,4-d]pyrimidin-6-yl]phenyl}carbamate] | 800
6 | 70 | – | – | – | 0.58 | 270 | > 10000 | CCn1ncc2c(N3CC4CCC(C3)O4)nc(-c3ccc(NC(=O)NC)cc3)nc21 [Example 40, 1-{4-[1-ethyl-4-(8-oxa-3-azabicyclo[3.2.1]oct-3-yl)-1H-pyrazolo[3,4-d]pyrimidin-6-yl]phenyl}-3-methylurea] | 300
7 | 4400 | – | – | – | > 800 | > 10000 | > 10000 | COC(=O)N1CCC(n2ncc3c(N4CC5CCC(C4)O5)nc(-c4ccc(NC(=O)OCCN5CCOCC5)cc4)nc32)CC1 [Example 117, methyl 4-[6-(4-{[(2-morpholin-4-ylethoxy)carbonyl]amino}phenyl)-4-(8-oxa-3-azabicyclo[3.2.1]oct-3-yl)-1H-pyrazolo[3,4-d]pyrimidin-1-yl]piperidine-1-carboxylate] | 22000
8 | 2200 | – | – | – | 42 | 311 | 494 | CCn1ncc2c(N3CC4CCC(C3)O4)nc(-c3ccc(NC(=O)NCC(=O)NCCN(C)C)cc3)nc21 [Example 278] | 5200
9 | 1700 | – | – | – | 335 | 2660 | 6740 | COC(=O)N1CCC(n2ncc3c(N4CC5CCC(C4)O5)nc(-c4ccc(NC(=O)OCCN5CCCC5)cc4)nc32)CC1 [Example 116, methyl 4-[4-(8-oxa-3-azabicyclo[3.2.1]oct-3-yl)-6-(4-{[(2-pyrrolidin-1-ylethoxy)carbonyl]amino}phenyl)-1H-pyrazolo[3,4-d]pyrimidin-1-yl]piperidine-1-carboxylate] | 4000
10 | 4 | – | – | – | 0.835 | 116 | 1300 | CN(C)CCOc1ccc(NC(=O)Nc2ccc(-c3nc(N4CC5CCC(C4)O5)c4cnn(CCF)c4n3)cc2)cc1 [Example 243, 1-{4-[2-(dimethylamino)ethoxy]phenyl}-3-{4-[1-(2-fluoroethyl)-4-(8-oxa-3-azabicyclo[3.2.1]oct-3-yl)-1H-pyrazolo[3,4-d]pyrimidin-6-yl]phenyl}urea] | 9
11 | 8 | 3.4 | 382 | 5200 | – | – | – | COCC(COC)n1ncc2c(N3CC4CCC(C3)O4)nc(-c3ccc(NC(=O)Nc4ccccc4)cc3)nc21 [Example 324, 1-(4-{1-[2-methoxy-1-(methoxymethyl)ethyl]-4-(8-oxa-3-azabicyclo[3.2.1]oct-3-yl)-1H-pyrazolo[3,4-d]pyrimidin-6-yl}phenyl)-3-phenylurea] | 58
12 | 0.8 | – | – | – | 0.3 | 68 | 1610 | CCn1ncc2c(N3CC4CCC(C3)O4)nc(-c3ccc(NC(=O)Nc4ccccc4)cc3)nc21 [Example 46, 1-{4-[1-ethyl-4-(8-oxa-3-azabicyclo[3.2.1]oct-3-yl)-1H-pyrazolo[3,4-d]pyrimidin-6-yl]phenyl}-3-phenylurea] | 12

Second part, the molecule before the results:

Row | Structure (SMILES) | IC50 [1] [nM] | IC50 [2, 6] [nM] | IC50 [3, 7] [nM] | IC50 [4, 8] [nM] | IC50 [2] [nM] | IC50 ([3]; PI3 Kinase α) [nM] | IC50 ([4]; PI3 Kinase γ) [nM] | IC50 [5] [nM]
13 | COC(=O)N1CCC(n2ncc3c(N4C5CCC4COC5)nc(-c4ccc(NC(=O)Nc5ccc(N6CCN(C)CC6)cc5)cc4)nc32)CC1 [Example 363, methyl 4-{6-[4-({[4-(4-methylpiperazin-1-yl)phenyl]carbamoyl}amino)phenyl]-4-(3-oxa-8-azabicyclo[3.2.1]oct-8-yl)-1H-pyrazolo[3,4-d]pyrimidin-1-yl}piperidine-1-carboxylate] | < 1 | 0.545 | 1590 | 3240 | – | – | – | 1
14 | Cn1ncc2c(N3CC4CCC(C3)O4)nc(-c3ccc(NC(=O)Nc4ccc(N)cc4)cc3)nc21 [Example 234, 1-(4-aminophenyl)-3-{4-[1-methyl-4-(8-oxa-3-azabicyclo[3.2.1]oct-3-yl)-1H-pyrazolo[3,4-d]pyrimidin-6-yl]phenyl}urea] | 2 | – | – | – | 0.355 | 162 | 1100 | 11
15 | CNC(=O)Nc1ccc(-c2nc(N3CC4CCC(C3)O4)c3cnn(C4CCC5(CC4)OCCCO5)c3n2)cc1 [Example 151, 1-{4-[1-(1,5-dioxaspiro[5.5]undec-9-yl)-4-(8-oxa-3-azabicyclo[3.2.1]oct-3-yl)-1H-pyrazolo[3,4-d]pyrimidin-6-yl]phenyl}-3-methylurea] | 8 | – | – | – | 1.19 | 363 | > 10000 | 130
16 | CN1CCN(Cc2cc3nc(-c4ccc(NC(=O)Nc5ccncc5)cc4)nc(N4CC5CCC(C4)O5)c3s2)CC1 [Example 427, 1-(4-{6-[(4-methylpiperazin-1-yl)methyl]-4-(8-oxa-3-azabicyclo[3.2.1]oct-3-yl)thieno[3,2-d]pyrimidin-2-yl}phenyl)-3-pyridin-4-ylurea] | 200 | 3.7 | 86 | 1270 | – | – | – | 390
17 | CC(C)n1ncc2c(N3CC4CCC(C3)O4)nc(-c3ccc(NC(=O)Nc4ccccc4)cc3)nc21 [Example 147, 1-{4-[1-isopropyl-4-(8-oxa-3-azabicyclo[3.2.1]oct-3-yl)-1H-pyrazolo[3,4-d]pyrimidin-6-yl]phenyl}-3-phenylurea] | < 1 | – | – | – | 0.185 | 30 | 475 | 18
18 | CCn1ncc2c(N3CC4CCC(C3)O4)nc(-c3ccc(NC(=O)Nc4ccc(C(=O)NN(C)C)cc4)cc3)nc21 [Example 289, 1-{4-[(2,2-dimethylhydrazino)carbonyl]phenyl}-3-{4-[1-ethyl-4-(8-oxa-3-azabicyclo[3.2.1]oct-3-yl)-1H-pyrazolo[3,4-d]pyrimidin-6-yl]phenyl}urea] | < 1 | – | – | – | 0.33 | 109 | 706 | < 1
19 | O=C(Nc1ccc(-c2nc(N3CC4CCC(C3)O4)c3cnn(C4CCC5(CC4)OCCO5)c3n2)cc1)Nc1cccnc1 [Example 376, 1-{4-[1-(1,4-dioxaspiro[4.5]dec-8-yl)-4-(8-oxa-3-azabicyclo[3.2.1]oct-3-yl)-1H-pyrazolo[3,4-d]pyrimidin-6-yl]phenyl}-3-pyridin-3-ylurea] | 1 | 0.125 | 270 | 4060 | – | – | – | 5
20 | O=C(NCCF)Nc1ccc(-c2nc(N3CC4CCC(C3)O4)c3cnn(C4CCN(Cc5cccnc5)CC4)c3n2)cc1 [Example 16, 1-(2-fluoroethyl)-3-(4-{4-(8-oxa-3-azabicyclo[3.2.1]oct-3-yl)-1-[1-(pyridin-3-ylmethyl)piperidin-4-yl]-1H-pyrazolo[3,4-d]pyrimidin-6-yl}phenyl)urea] | 6 | – | – | – | 0.5 | 2630 | > 10000 | 80
